Measurements as given in the NIST ThermoML archive (doi:10.1016/j.jct.2016.12.012).
“And” between values parts separate entries of the source, which are not always exact repeats. Equal entries are not always repeated.

Tests used:
[1] = for Normal melting temperature: DTA
[2] = Molar enthalpy of transition or fusion; conditions: DSC

CC(=O)Oc1ccc(C(C)=O)cc1 [4-acetoxyacetophenone]
[1]
Conditions	vapor or sublimation pressure
298.12 K, Crystal 2, Calculated from knudsen effusion weight loss	9.3e-05 kPa
299.15 K, Crystal 2, Calculated from knudsen effusion weight loss	0.000105 kPa and 0.000106 kPa
300.3 K, Crystal 2, Calculated from knudsen effusion weight loss	0.000123 kPa
301.34 K, Crystal 2, Calculated from knudsen effusion weight loss	0.000143 kPa and 0.000142 kPa and 0.000141 kPa
302.25 K, Crystal 2, Calculated from knudsen effusion weight loss	0.000159 kPa
303.23 K, Crystal 2, Calculated from knudsen effusion weight loss	0.000185 kPa and 0.000184 kPa
304.1 K, Crystal 2, Calculated from knudsen effusion weight loss	0.000202 kPa and 0.000205 kPa
305.13 K, Crystal 2, Calculated from knudsen effusion weight loss	0.00023 kPa and 0.000232 kPa and 0.000229 kPa
306.26 K, Crystal 2, Calculated from knudsen effusion weight loss	0.000268 kPa and 0.000266 kPa
307.14 K, Crystal 2, Calculated from knudsen effusion weight loss	0.0003 kPa and 0.000301 kPa
308.25 K, Crystal 2, Calculated from knudsen effusion weight loss	0.000347 kPa and 0.000346 kPa
309.29 K, Crystal 2, Calculated from knudsen effusion weight loss	0.000397 kPa and 0.000395 kPa and 0.000394 kPa
315 K, Crystal 1, Closed cell (Static) method	0.00078 kPa
316 K, Crystal 1, Closed cell (Static) method	0.00087 kPa
317 K, Crystal 1, Closed cell (Static) method	0.00098 kPa
317.96 K, Crystal 1, Closed cell (Static) method	0.00109 kPa
318.99 K, Crystal 1, Closed cell (Static) method	0.00123 kPa
319.96 K, Crystal 1, Closed cell (Static) method	0.00139 kPa
321.01 K, Crystal 1, Closed cell (Static) method	0.00155 kPa
321.89 K, Crystal 1, Closed cell (Static) method	0.00173 kPa
322.88 K, Crystal 1, Closed cell (Static) method	0.00195 kPa
323.91 K, Crystal 1, Closed cell (Static) method	0.00218 kPa

[1], Liquid, Closed cell (Static) method
Conditions	vapor or sublimation pressure [kPa]
328.88 K	0.00341
330.91 K	0.00406
332.89 K	0.00478
334.84 K	0.00555
336.85 K	0.00658
338.81 K	0.00777
340.85 K	0.00908
342.77 K	0.01045
344.77 K	0.01225
346.74 K	0.01408
348.68 K	0.01633
350.65 K	0.01885
352.66 K	0.02182
354.62 K	0.02505
356.57 K	0.02907
358.59 K	0.03305
360.49 K	0.03795
362.51 K	0.04335
364.46 K	0.04961
366.46 K	0.05645
368.38 K	0.06404
370.41 K	0.07307
372.31 K	0.08205
374.34 K	0.09319
376.33 K	0.1048
378.32 K	0.1186

Conditions	Molar enthalpy of transition or fusion, Crystal 1 [kcal/mol]	Molar enthalpy of transition or fusion, Crystal 2 [kcal/mol]	Normal melting temperature, Crystal 1 [°C]	Triple point temperature, Crystal 2, DSC [K]
[1]	–	–	51.0	310.1
[2]	4.97	0.143	–	–

COc1ccc(C(C)=O)cc1 [4'-methoxyacetophenone]
[1]
Conditions	vapor or sublimation pressure [kPa]
296.23 K, Crystal, Closed cell (Static) method	0.00059
298.19 K, Crystal, Closed cell (Static) method	0.00075
300.19 K, Crystal, Closed cell (Static) method	0.00096
302.13 K, Metastable liquid, Closed cell (Static) method	0.00143
302.18 K, Crystal, Closed cell (Static) method	0.00121
304.14 K, Metastable liquid, Closed cell (Static) method	0.00174
304.15 K, Crystal, Closed cell (Static) method	0.00153
306.09 K, Metastable liquid, Closed cell (Static) method	0.00209
306.12 K, Crystal, Closed cell (Static) method	0.00192
308.1 K, Crystal, Closed cell (Static) method	0.00239
308.12 K, Metastable liquid, Closed cell (Static) method	0.00251
310.08 K, Metastable liquid, Closed cell (Static) method	0.00301
312.06 K, Closed cell (Static) method, Liquid	0.0036
314.2 K, Closed cell (Static) method, Liquid	0.00436
316.08 K, Closed cell (Static) method, Liquid	0.00516
318.02 K, Closed cell (Static) method, Liquid	0.0061
320.04 K, Closed cell (Static) method, Liquid	0.00716
321.98 K, Closed cell (Static) method, Liquid	0.00847
324.01 K, Closed cell (Static) method, Liquid	0.01002
326 K, Closed cell (Static) method, Liquid	0.01174
327.92 K, Closed cell (Static) method, Liquid	0.01375
329.93 K, Closed cell (Static) method, Liquid	0.01614
331.9 K, Closed cell (Static) method, Liquid	0.0189
333.88 K, Closed cell (Static) method, Liquid	0.02202
335.86 K, Closed cell (Static) method, Liquid	0.02563
337.93 K, Closed cell (Static) method, Liquid	0.02998
339.82 K, Closed cell (Static) method, Liquid	0.03463
341.89 K, Closed cell (Static) method, Liquid	0.04012
343.72 K, Closed cell (Static) method, Liquid	0.04593
345.84 K, Closed cell (Static) method, Liquid	0.05323
347.69 K, Closed cell (Static) method, Liquid	0.06033
349.8 K, Closed cell (Static) method, Liquid	0.06953
351.63 K, Closed cell (Static) method, Liquid	0.07823
353.72 K, Closed cell (Static) method, Liquid	0.09003
355.73 K, Closed cell (Static) method, Liquid	0.1035

Crystal
Conditions	Molar enthalpy of transition or fusion [kcal/mol]	Normal melting temperature [°C]
[1]	–	37.2
[2]	4.02	–
